As usually defined, the pIC50 is the negative decadic logarithm of the IC50, by convention in mol/L.

SMILES strings stand for the structures. pIC50: −log10 of the molar value. Counter-ions that a name gives are not always drawn.

24 molecules from US20250145585A1, “HETEROCYCLIC INHIBITORS OF IGF-1R FOR TREATMENT OF DISEASE” (HORIZON THERAPEUTICS IRELAND DAC, priority 2023, published 2025) can be followed below.

For this experiment, the target named is T1, IGF-1R (Homo sapiens, UniProt P08069).
T1 construct: expressed in transfected cells
T1 sequence (P08069 31-1367): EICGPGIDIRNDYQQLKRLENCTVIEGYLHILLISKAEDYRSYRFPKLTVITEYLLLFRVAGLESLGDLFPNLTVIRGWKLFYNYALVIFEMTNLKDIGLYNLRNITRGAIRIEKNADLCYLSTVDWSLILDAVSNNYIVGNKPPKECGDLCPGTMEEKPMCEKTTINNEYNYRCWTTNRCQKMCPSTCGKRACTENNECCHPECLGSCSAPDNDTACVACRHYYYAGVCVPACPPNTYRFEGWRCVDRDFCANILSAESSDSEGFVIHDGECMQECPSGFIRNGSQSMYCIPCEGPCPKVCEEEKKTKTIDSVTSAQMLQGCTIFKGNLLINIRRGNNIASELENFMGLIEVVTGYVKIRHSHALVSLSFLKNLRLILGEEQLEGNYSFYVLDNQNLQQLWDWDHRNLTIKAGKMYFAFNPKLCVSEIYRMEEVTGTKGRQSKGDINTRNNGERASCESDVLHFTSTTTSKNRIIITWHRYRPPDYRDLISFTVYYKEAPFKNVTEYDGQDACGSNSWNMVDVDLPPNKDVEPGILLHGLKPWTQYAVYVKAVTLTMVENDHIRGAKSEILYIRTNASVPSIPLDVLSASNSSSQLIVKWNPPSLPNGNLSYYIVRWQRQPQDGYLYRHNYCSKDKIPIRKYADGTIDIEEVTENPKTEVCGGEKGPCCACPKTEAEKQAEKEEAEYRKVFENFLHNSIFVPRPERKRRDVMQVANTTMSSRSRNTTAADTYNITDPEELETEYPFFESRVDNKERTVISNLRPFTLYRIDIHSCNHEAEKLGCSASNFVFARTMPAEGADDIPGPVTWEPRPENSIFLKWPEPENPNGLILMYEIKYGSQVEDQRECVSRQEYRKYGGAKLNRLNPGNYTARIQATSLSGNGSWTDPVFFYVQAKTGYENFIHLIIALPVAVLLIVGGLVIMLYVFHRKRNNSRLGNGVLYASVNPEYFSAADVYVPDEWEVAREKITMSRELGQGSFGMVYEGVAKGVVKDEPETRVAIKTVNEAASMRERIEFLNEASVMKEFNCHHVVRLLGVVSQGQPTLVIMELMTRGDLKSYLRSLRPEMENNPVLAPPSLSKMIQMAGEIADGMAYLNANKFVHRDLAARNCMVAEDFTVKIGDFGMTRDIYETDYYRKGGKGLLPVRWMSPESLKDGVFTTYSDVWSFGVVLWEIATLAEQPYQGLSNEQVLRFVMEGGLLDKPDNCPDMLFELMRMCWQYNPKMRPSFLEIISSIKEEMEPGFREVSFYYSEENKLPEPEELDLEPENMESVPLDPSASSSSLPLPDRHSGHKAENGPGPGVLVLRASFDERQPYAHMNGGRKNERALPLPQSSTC
Put plainly: Example B-2: IGF-1R Assay (PathHunter cell lines, EC80 agonist challenge, chemiluminescent detection). The experiment is classed as cell-based. Particulars: PathHunter cells, compound 60 minutes at 37° C., EC80 agonist 3 hours; read-out: IC50, Biological Activity against IGF-1R (Table B2). Here is the method:
PathHunter cell lines were expanded from freezer stocks according to standard procedures. Cells were seeded in a total volume of 20 μL into white walled, 384-well microplates and incubated for the appropriate time prior to testing.
Cells are pre-incubated with compound followed by EC80 agonist challenge as follows: • R. 1. Intermediate dilution of sample stocks was performed to generate 5× sample in assay buffer. • 2. 5 μL of 5× sample was added to cells and incubated at 37° C. for 60 minutes. Vehicle concentration was 1%. • 3. 5 IL of 6× EC80 agonist in assay buffer was added to the cells and incubated at room temperature for 3 hours.
Assay signal was generated through a single addition of 12.5 or 15 μL (50% v/v) of PathHunter Detection reagent cocktail for agonist and antagonist assays respectively, followed by a one hour incubation at room temperature. Microplates were read following signal generation with a PerkinElmer Envision™ instrument for chemilumine-scent signal detection.
Compound activity was analyzed using CBIS data analysis suite (ChemInnovation, CA). Percentage inhibition was calculated using the following formula: % Inhibition=100%×(1−(mean RLU of test sample−mean RLU of vehicle control)/(mean RLU of EC80 control−mean RLU of vehicle control)). The activity for representative examples of the invention is shown in the following table, wherein A: IC50≤500 nM; B: 500 nM<IC50≤2 μM; C: 2 μM<IC50≤10 μM; D: IC50>10 μM.

Consider `C[C@H]1COc2c(CN3C(=O)N(c4ccc(C5(C(F)(F)F)CC5)cc4)C(=O)C3(C)C)ccnc2N1` [Compound 26, (S)-5,5-dimethyl-1-((3-methyl-3,4-dihydro-2H-pyrido[3,2-b][1,4]oxazin-8-yl)methyl)-3-(4-(1-(trifluoromethyl)cyclopropyl)phenyl) imidazolidine-2,4-dione], for which the pIC50 is at least 6.30.

Regarding `C[C@@H]1CNc2nccc(CN3C(=O)N(c4ccc(C5(C(F)(F)F)CC5)cc4)C(=O)C3(C)C)c2O1` [Compound 27, (R)-5,5-dimethyl-1-((2-methyl-3,4-dihydro-2H-pyrido[3,2-b][1,4]oxazin-8-yl)methyl)-3-(4-(1-(trifluoromethyl)cyclopropyl)phenyl) imidazolidine-2,4-dione], the pIC50 is at least 6.30.

On to `C[C@H]1CNc2nccc(CN3C(=O)N(c4ccc(C5(C(F)(F)F)CC5)cc4)C(=O)C3(C)C)c2O1` [Compound 28, (S)-5,5-dimethyl-1-((2-methyl-3,4-dihydro-2H-pyrido[3,2-b][1,4]oxazin-8-yl)methyl)-3-(4-(1-(trifluoromethyl)cyclopropyl)phenyl) imidazolidine-2,4-dione], for which the pIC50 is at least 6.30.

For `CC(C)(C#N)c1ccc(N2C(=O)N(Cc3ccnc4c3CC(=O)N4)C(C)(C)C2=O)cc1` [Compound 29, 2-(4-(4,4-dimethyl-2,5-dioxo-3-((2-oxo-2,3-dihydro-1H-pyrrolo[2,3-b]pyridin-4-yl)methyl)imidazolidin-1-yl)phenyl)-2-methylpropanenitrile], the negative logarithm of the IC50 (pIC50) is at least 6.30.

On to `CC1(C)C(=O)N(c2ccc(C3(C(F)(F)F)CCC3)cc2)C(=O)N1Cc1ccnc2c1CC(=O)N2` [Compound 30, 5,5-dimethyl-1-((2-oxo-2,3-dihydro-1H-pyrrolo[2,3-b]pyridin-4-yl)methyl)-3-(4-(1-(trifluoromethyl)cyclobutyl)phenyl)imidazolidine-2,4-dione hydrochloride], for which the pIC50 was at least 6.30.

In the case of `CC1C(=O)Nc2nccc(CN3C(=O)N(c4ccc(C5(C(F)(F)F)CC5)cc4)C(=O)C3(C)C)c21` (stereo not drawn) [Compound 31, 5,5-dimethyl-1-((3-methyl-2-oxo-2,3-dihydro-1H-pyrrolo[2,3-b]pyridin-4-yl)methyl)-3-(4-(1-(trifluoromethyl)cyclopropyl)phenyl) imidazolidine-2,4-dione], the negative logarithm of the IC50 (pIC50) is at least 6.30.

For the molecule `CC1(C)C(=O)N(c2ccc(C34CC(C3)C4)cc2)C(=O)N1Cc1ccnc2c1CC(=O)N2` [Compound 32, 3-(4-(bicyclo[1.1.1]pentan-1-yl)phenyl)-5,5-dimethyl-1-((2-oxo-2,3-dihydro-1H-pyrrolo[2,3-b]pyridin-4-yl)methyl)imidazolidine-2,4-dione], the negative logarithm of the IC50 (pIC50) was at least 6.30.

Take `CC1(C)C(=O)N(c2ccc(C3(C(F)(F)F)CC3)cc2)C(=O)N1Cc1ccnc2c1CCN2` [Compound 33, 1-((2,3-dihydro-1H-pyrrolo[2,3-b]pyridin-4-yl)methyl)-5,5-dimethyl-3-(4-(1-(trifluoromethyl)cyclopropyl)phenyl) imidazolidine-2,4-dione]: the pIC50 was at least 6.30.

For the molecule `CC1Cc2c(CN3C(=O)N(c4ccc(C5(C(F)(F)F)CC5)cc4)C(=O)C3(C)C)ccnc2N1` (stereo not drawn) [Compound 34, 5,5-dimethyl-1-((2-methyl-2,3-dihydro-1H-pyrrolo[2,3-b]pyridin-4-yl)methyl)-3-(4-(1-(trifluoromethyl)cyclopropyl)phenyl) imidazolidine-2,4-dione], the negative-log IC50 (pIC50) was at least 6.30.

With `CC1(C)COc2cc(N3C(=O)N(Cc4ccnc5c4CC(=O)N5)C(C)(C)C3=O)ccc21` [Compound 35, 3-(3,3-dimethyl-2,3-dihydrobenzofuran-6-yl)-5,5-dimethyl-1-((2-oxo-2,3-dihydro-1H-pyrrolo[2,3-b]pyridin-4-yl)methyl)imidazolidine-2,4-dione], the pIC50 was at least 6.30.

As to `CC(C)(C)c1ccc(N2C(=O)N(Cc3ccnc4c3CC(=O)N4)C(C)(C)C2=O)cc1` [Compound 36, 3-(4-(tert-butyl)phenyl)-5,5-dimethyl-1-((2-oxo-2,3-dihydro-1H-pyrrolo[2,3-b]pyridin-4-yl)methyl)imidazolidine-2,4-dione], the pIC50 was at least 6.30.

`CC1(C)CN(S(C)(=O)=O)c2cc(N3C(=O)N(Cc4ccnc5c4CC(=O)N5)C(C)(C)C3=O)ccc21` [Compound 37, 3-(3,3-dimethyl-1-(methylsulfonyl)indolin-6-yl)-5,5-dimethyl-1-((2-oxo-2,3-dihydro-1H-pyrrolo[2,3-b]pyridin-4-yl)methyl)imidazolidine-2,4-dione]: the pIC50 was at least 6.30.

With `CC1(C)C(=O)N(c2ccc(C3(C(F)(F)F)CC3)cc2)C(=O)N1Cc1ccnc2c1CCC(=O)N2` [Compound 38, 5,5-dimethyl-1-((7-oxo-5,6,7,8-tetrahydro-1,8-naphthyridin-4-yl)methyl)-3-(4-(1-(trifluoromethyl)cyclopropyl)phenyl) imidazolidine-2,4-dione], the pIC50 was at least 6.30.

In the case of `CC1(C)CN(C(=O)C2CC2)c2cc(N3C(=O)N(Cc4ccnc5c4CC(=O)N5)C(C)(C)C3=O)ccc21` [Compound 39, 3-(1-(cyclopropanecarbonyl)-3,3-dimethylindolin-6-yl)-5,5-dimethyl-1-((2-oxo-2,3-dihydro-1H-pyrrolo[2,3-b]pyridin-4-yl)methyl)imidazolidine-2,4-dione], the negative logarithm of the IC50 (pIC50) is at least 6.30.

On to `CC1(C)C(=O)N(c2ccc(C3(C#N)CCC3)cc2)C(=O)N1Cc1ccnc2c1CC(=O)N2` [Compound 40, (1-(4-(4,4-dimethyl-2.5-dioxo-3-((2-oxo-2,3-dihydro-1H-pyrrolo[2,3-b]pyridin-4-yl)methyl)imidazolidin-1-yl)phenyl)cyclobutane-1-carbonitrile)], for which the negative logarithm of the IC50 (pIC50) was at least 6.30.

Regarding `CC(C)(Br)Cc1cn(S(C)(=O)=O)c2cc(N3C(=O)N(Cc4ccnc5c4CC(=O)N5)C(C)(C)C3=O)ccc12` [Compound 41, 3-(3-(2-bromo-2-methylpropyl)-1-(methylsulfonyl)-1H-indol-6-yl)-5,5-dimethyl-1-((2-oxo-2,3-dihydro-1H-pyrrolo[2,3-b]pyridin-4-yl)methyl)imidazolidine-2,4-dione], the pIC50 was at least 6.30.

For `Cn1nc(C(C)(C)C)cc1N1C(=O)N(Cc2ccnc3[nH]ccc23)C(C)(C)C1=O` [Compound 42, 1-((1H-pyrrolo[2,3-b]pyridin-4-yl)methyl)-3-(3-(tert-butyl)-1-methyl-1H-pyrazol-5-yl)-5,5-dimethylimidazolidine-2,4-dione], the pIC50 is under 5.00.

For `CC1(C)C(=O)N(c2ccc3c(c2)N(S(C)(=O)=O)CC32CCC2)C(=O)N1Cc1ccnc2c1CC(=O)N2` [Compound 43, 5,5-dimethyl-3-(1′-(methylsulfonyl)spiro[cyclobutane-1,3′-indolin]-6′-yl)-1-((2-oxo-2,3-dihydro-1H-pyrrolo[2,3-b]pyridin-4-yl)methyl)imidazolidine-2,4-dione], the negative-log IC50 (pIC50) was at least 6.30.

Regarding `CC1(C)C(=O)N(c2ccc(C3(C(F)(F)F)CC3)cc2)C(=O)N1Cc1ccnc2c1CS(=O)(=O)N2` [Compound 44, 1-((2,2-dioxido-1,3-dihydroisothiazolo[3,4-b]pyridin-4-yl)methyl)-5,5-dimethyl-3-(4-(1-(trifluoromethyl)cyclopropyl)phenyl) imidazolidine-2,4-dione], the pIC50 is under 5.00.

As for `CC1(C)C(=O)N(c2ccc3c(c2)N(S(C)(=O)=O)CC32CC2)C(=O)N1Cc1ccnc2c1CC(=O)N2` [Compound 45, 5,5-dimethyl-3-(1′-(methylsulfonyl)spiro[cyclopropane-1,3′-indolin]-6′-yl)-1-((2-oxo-2,3-dihydro-1H-pyrrolo[2,3-b]pyridin-4-yl)methyl)imidazolidine-2,4-dione], the pIC50 is at least 6.30.

On to `CC1(C)C(=O)N(c2ccc3c(c2)N(C(=O)C2CC2)CC32CC2)C(=O)N1Cc1ccnc2c1CC(=O)N2` [Compound 46, 3-(1′-(cyclopropanecarbonyl)spiro[cyclopropane-1,3′-indolin]-6′-yl)-5,5-dimethyl-1-((2-oxo-2,3-dihydro-1H-pyrrolo[2,3-b]pyridin-4-yl)methyl)imidazolidine-2,4-dione], for which the pIC50 was at least 6.30.

As for `Cn1nc(C(C)(C)C)c(Br)c1N1C(=O)N(Cc2ccnc3c2CC(=O)N3)C(C)(C)C1=O` [Compound 47, 3-(4-bromo-3-(tert-butyl)-1-methyl-1H-pyrazol-5-yl)-5,5-dimethyl-1-((2-oxo-2,3-dihydro-1H-pyrrolo[2,3-b]pyridin-4-yl)methyl)imidazolidine-2,4-dione], the pIC50 was 5.00 to 5.70.

On to `CC1(c2ccc(N3C(=O)N(Cc4ccnc5c4CC(=O)N5)C(C)(C)C3=O)cc2)CC1` [Compound 48, 5,5-dimethyl-3-(4-(1-methylcyclopropyl)phenyl)-1-((2-oxo-2,3-dihydro-1H-pyrrolo[2,3-b]pyridin-4-yl)methyl)imidazolidine-2,4-dione], for which the pIC50 is at least 6.30.

Consider `CC1(C)C(=O)N(c2ccc(C(C)(C)C(F)(F)F)cc2)C(=O)N1Cc1ccnc2c1C(F)(F)C(=O)N2` [Compound 49, 1-((3,3-difluoro-2-oxo-2,3-dihydro-1H-pyrrolo[2,3-b]pyridin-4-yl)methyl)-5,5-dimethyl-3-(4-(1,1,1-trifluoro-2-methylpropan-2-yl)phenyl)imidazolidine-2,4-dione], for which the pIC50 is at least 6.30.
